# Laboratory results published in US11174270B2, “Crystal form of 3,4-dihydrothieno[3,2-d]pyrimidine compound and preparation method thereof” (PHAENO THERAPEUTICS CO., LTD., priority 2018, dated 2021).
# Key:
# [1] = tested on: human cytomegalovirus (HCMV); test: Fluorescence decay assay against human cytomegalovirus; type: cell-based; settings: Human betaherpesvirus 5, 240 h; US3-6-EGFP-HCMV-AD169 in MRCS cells, 10 days of culture, GFP fluorescence intensity
# Protocol: Fluorescence Decay Assay Against Human Cytomegalovirus
# The antiviral activity of the compound against human cytomegalovirus (HCMV) was evaluated by determining the median effective concentration (EC50) value of the compound. The HCMV used in this assay was inserted with enhanced green fluorescent protein (EGFP) as a reporter gene by gene recombination, and thus the replication of the virus in cells can be reflected by the expression level of GFP. The inhibitory activity of the compound on the expression of GFP in HCMV was evaluated by determining the fluorescence intensity in the wells of different concentrations of the compound using a high-content cell analysis platform Acumen eX3.
# Fluorescence Decay Assay Against HCMV
# MRCS cells were inoculated into a black 96-well cell culture plate at a density of 20,000 cells per well, and then incubated overnight in a 37° C., 5% CO2 incubator. US3-6-EGFP-HCMV-AD169 viruses were added to the cell culture wells at a certain MOI (0.003 to 0.1), and incubated in a 37° C., 5% CO2 incubator for 3 hours. After adsorption of viruses, the medium containing viruses was pipetted out, and 200 μl of cell culture medium containing different concentrations of the compound (4-fold dilution, 6 test concentrations) was added. […] After 10 days of culture, the fluorescence intensity was detected with a high content cell analysis platform Acumen eX3 (TTP LabTech). […]
# [2] = Plasma protein binding rate, equilibrium dialysis, human plasma; type: in vitro ADME; settings: equilibrium dialysis 37° C. 4 hours, read-out: Plasma Protein Binding PPB bound(%) (converted)
# Protocol: Determination of the Plasma Protein Binding Rate of the Compound
# The protein-binding rates of the test compound in the plasma of CD-1 mice, SD rats and human were evaluated by the equilibrium dialysis method. Compound 1 was diluted into the plasma of the above three species respectively to prepare samples with a final concentration of 2 μM. The samples were then added to a 96-well equilibrium dialysis device, and dialyzed against phosphate buffer solution at 37° C. for 4 hours. Warfarin was used as a control compound in the assay. The concentrations of the test compound and warfarin in the plasma and buffer were determined by LC-MS/MS method.
# HCMV (strain: GFP-AD169) = test: Human cytomegalovirus (HCMV) transplantation model in mice; type: in vivo; settings: NOD SCID mice, 8 mg/kg orally once per day
# Protocol: Human Cytomegalovirus (HCMV) Transplantation Model in Mice
# Gelatin sponge containing HCMV was transplanted into mice. After 9 days of continuous administration, the gelatin sponge was collected for plaque detection. The anti-HCMV effect of the compound in this model was evaluated by detecting the amount of HCMV in the gelatin sponge.
# The animals used in the assay were NOD SCID mice (purchased from Shanghai SLAC Laboratory Animal Co., Ltd.), 5 weeks old, and male. There were 5 animals in each group. The day on which the mice were subjected to gelatin sponge transplantation was set as day 0. Human foreskin fibroblasts (HFF, MOI=0.03) were infected with HCMV (strain: GFP-AD169) in advance, and then the HFF cells infected with HCMV were added to 1 cm^2 gelatin sponges and incubated for use. The animals were anesthetized by intraperitoneal injection of pentobarbital sodium at a dose of 75 mg/kg (10 ml/kg). After the animals entered the deep anesthesia state, the treated gelatin sponges were subcutaneously transplanted into the back of the mice. From day 1 to day 9, 8 mg/kg (10 ml/kg) of compound 1 was administered orally once per day. On the day 9, four hours after the administration, the gelatin sponges were taken out and digested, and then the plaques were detected.
smiles,measurement,setting,value
"COc1cc(N2CCN(C3=Nc4ccsc4[C@H](CC(=O)O)N3c3cc(C(F)(F)F)ccc3OC)C[C@H]2C)ccn1 (single isomer, unassigned) [Compound 1]",EC50,[1],0.2 nM
same,"fraction unbound at 4 h, 2 μM",[2],0.06
same,body weights of the mice,HCMV (strain: GFP-AD169); day 1 to day 9,stable
same,clinical observations,HCMV (strain: GFP-AD169); day 1 to day 9,no abnormality was found
same,decrease in HCMV viral load,"HCMV (strain: GFP-AD169); gelatin sponge with HCMV-infected HFF, day 1 to day 9, plaque detection",2.38 log PFU/ml
